{"source": "patent US12569536B2", "about": "“Macrocyclic peptides for targeted inhibition of autophagy” (Board of Regents, The University of Texas System, priority 2019, dated 2026)", "key": {"LC3A": {"target": "T1, LC3A (Homo sapiens, UniProt Q9H492)", "T1 construct": "made in house", "assay": "Binding of radiolabeled individual peptide fusions to immobilized LC3A", "details": "for Binding analysis of clones on immobilized LC3 (FIG. 3E): radiolabeled peptide fusions", "protocol": "A randomized 8-mer peptide library (with a diversity of 3.78×10^10 unique sequences) was designed, and SUPR peptide mRNA display selections incorporating N-methyl alanine and proteinase-K screening were performed against recombinant LC3 (FIGS. 3A-E). For this, milligram quantities of His6-LC3A were bacterially expressed and purified, chemically biotinylated, and immobilized on streptavidin agarose resin for binding selection. Prior to each round of selection, mRNA-fusion libraries were translated using an in vitro rabbit reticulocyte lysate system incorporating amber-codon nonsense suppression with N-methyl alanine. Fusions were cyclized between the side chain of lysine and the N-terminus and briefly exposed to proteinase K to eliminate any sequences particularly susceptible to proteolysis. Binding selections were carried out by incubating mRNA display libraries with the immobilized His6-LC3A followed by elution in SDS and PCR amplification. After seven rounds of binding selection, the number of PCR cycles required to recover the enriched dsDNA after each binding selection had reduced by 40% (FIG. 3C). […] Over 90% of sequences in the library contained an N-methyl alanine residue at a conserved position adjacent to the fixed lysine residue. […] The majority of sequences contained variations of the canonical Autophagy-Interacting Motif observed in natural LC3 adaptor proteins (FIG. 4). […] Binding was confirmed by incubation of radiolabeled individual peptide fusions with immobilized LC3A (FIG. 3E; Table 2)."}, "[1]": {"tested_on": "OVCAR8 orthotopic ovarian tumors", "assay": "Orthotopic ovarian tumor model with carboplatin", "assay_type": "in vivo", "details": "mice, IP OVCAR8; three times per week for four weeks; SUPR peptide 10 mg/kg or carboplatin 25 mg/kg", "protocol": "FIG. 13: SUPR4B1W sensitizes orthotopic ovarian tumors to carboplatin treatment. Mice were injected IP with 2 million OVCAR8 cells and treated three times per week for four weeks with vehicle control, SUPR peptide (10 mg/kg), carboplatin (25 mg/kg), or combination of SUPR peptide and carboplatin. At the end of four weeks, mice were sacrificed and tumors were dissected. […] For each vertical groups of data points, the top group represents Mouse Weight and the bottom group represents Tumor Weight.\nIn animal model experiments, mice were implanted with a cisplatin-resistant ovarian cancer cell line (OVCAR8) and treated with carboplatin, SUPR4B1W peptide, or carboplatin+SUPR4B1W peptide for 4 weeks. At the conclusion of the study, the mice were sacrificed and the mass of the intraperitoneal tumors measured."}, "SKOv3 cells": {"tested_on": "SKOv3 cells", "assay": "MTT viability assay in DIRAS3 autophagy model", "details": "50 μM peptide; for cell viability (MTT), DIRAS3-induced (autophagic) cells: SKOv3, Dox-induced, 72 hours", "protocol": "(§1) FIGS. 6A-D: SUPR4B in the DIRAS3 autophagy model. FIGS. 6A&B—MTT viability assays with 50 M linear and cyclic SUPR 4B on non-DIRAS3 induced OVCAR8 (FIG. 6B) and SKOv3 (FIG. 6A) cells. […] Induction was performed using 1 g/mL DOX.\n(§2) FIGS. 8A-F: SUPR4B in the DIRAS3 autophagy model. […] Inhibition of autophagy by the present compound were hypothesized to restore cellular growth. […] FIGS. 8A&B—MTT viability assays with 50 M linear and cyclic SUPR on non-DIRAS3 induced OVCAR8 (FIG. 8A) and SKOv3 (FIG. 8B) cells. […] FIGS. 8C&D—MTT viability assays on the effect of 50 M linear and cyclic LC3 SUPR4B on DIRAS3-induced OVCAR8 (FIG. 8C) and SKOv3 (FIG. 8D) cells. Induction was performed using 1 g/mL DOX.\n(§3) After selection, the library was sequenced and lead compounds were subjected to thermodynamic and cellular assays to develop a structure-activity relationship modeling the interaction between the SUPR peptide and the target."}, "OVCAR8 cells": {"tested_on": "OVCAR8 cells", "details": "50 μM peptide; for cell viability (MTT), DIRAS3-induced (autophagic) cells: OVCAR8, Dox-induced, 72 hours", "protocol": "as §1, §2, §3"}, "SKOv3-ARHI cells": {"tested_on": "SKOv3-ARHI cells", "assay": "Western blotting of p62 and LC3I/LC3II in DIRAS3-induced cells", "assay_type": "cell-based", "details": "peptide-treated, 72 h", "protocol": "(§4) FIGS. 7A-B: SUPR4B in the DIRAS3 autophagy model.\n(§5) FIGS. 8A-F: SUPR4B in the DIRAS3 autophagy model. […] Induction was performed using 1 g/mL DOX."}, "OVCAR8-ARHI cells": {"tested_on": "OVCAR8-ARHI cells", "assay": "Western blotting of p62 and LC3I/LC3II in DIRAS3-induced cells", "assay_type": "cell-based", "details": "peptide-treated, 72 h", "protocol": "as §4, §5"}}, "note": "Entries after “also recorded” stand apart in the source; their conditions may differ. Numbered stars: 1 amine (or outer) side, 2 acyl side, 3 side chain; on linkers, the order of the positions; unused ones are H or OH. Bridge positions count the residues as written; N and C are the ends. Square brackets hold non-standard residues; d marks the D form. Ends that are not written are not given here. Peptide text beside a SMILES is read from it. Glutaryl = O=C(CCCC(=O)[*:2])[*:1]; NMeA = CN[C@@H](C)C(=O)O", "data": [{"compound": "MLARSLRDZK (MLARSLRD[NMeA]K; bridge N-10) [Clone 25I]", "values": [{"measurement": "% of radiolabeled peptide-fusions bound to immobilized LC3", "setting": "LC3A", "value": 4, "unit": "%"}]}, {"compound": "MYARSLRDZK (MYARSLRD[NMeA]K; bridge N-10) [Clone 25A]", "values": [{"measurement": "Binding analysis of clones on immobilized LC3 (FIG. 3E)", "setting": "LC3A", "value": "selective LC3 binding"}]}, {"compound": "MYTRRVRLZK (MYTRRVRL[NMeA]K; bridge N-10) [Clone 25E]", "values": [{"measurement": "% of radiolabeled peptide-fusions bound to immobilized LC3", "setting": "LC3A", "value": 3, "unit": "%"}]}, {"compound": "MSLHRVTVZK (MSLHRVTV[NMeA]K; bridge N-10) [Clone 4C]", "values": [{"measurement": "% of radiolabeled peptide-fusions bound to immobilized LC3", "setting": "LC3A", "value": 1, "unit": "%"}]}, {"compound": "MNARSLRDZK (MNARSLRD[NMeA]K; bridge N-10) [Clone 25F]", "values": [{"measurement": "Binding analysis of clones on immobilized LC3 (FIG. 3E)", "setting": "LC3A", "value": "selective LC3 binding"}]}, {"compound": "MLSDIPVNDK [Clone 4E]", "values": [{"measurement": "Binding analysis of clones on immobilized LC3 (FIG. 3E)", "setting": "LC3A", "value": "selective LC3 binding"}]}, {"compound": "N.N.O=C([O-])C1(C(=O)[O-])CCC1.[Pt+2]", "note": "[carboplatin, reference compound]", "values": [{"measurement": "final tumor mass, agent administered alone", "setting": "[1]", "value": "expected reduction in tumor volume"}]}, {"compound": "CCN(CC)CCCC(C)Nc1ccnc2cc(Cl)ccc12", "note": "(stereo not shown) [chloroquine, reference compound]", "values": [{"measurement": "cell viability (MTT), DIRAS3-induced (autophagic) cells", "setting": "SKOv3 cells", "value": "did not result in a statistically significant increase in cell viability"}, {"measurement": "cell viability (MTT), DIRAS3-induced (autophagic) cells", "setting": "OVCAR8 cells", "value": "did not result in a statistically significant increase in cell viability"}]}, {"compound": "MFSHRVTLZK (MFSHRVTL[NMeA]K; bridge N-10) [Clone 25C]", "values": [{"measurement": "Binding analysis of clones on immobilized LC3 (FIG. 3E)", "setting": "LC3A", "value": "selective LC3 binding"}]}, {"compound": "CSCC[C@@H]1NC(=O)CCCC(=O)NCCCC[C@@H](C(=O)O)NC(=O)[C@H](C)N(C)C(=O)[C@H](C)NC(=O)[C@H]([C@@H](C)O)NC(=O)[C@H](C(C)C)NC(=O)[C@H](CCCNC(=N)N)NC(=O)[C@H](Cc2c[nH]cn2)NC(=O)[C@@H]2CCCN2C(=O)[C@H](Cc2ccccc2)NC1=O", "note": "[Clone 4B, MFPHRVTAZK] (MFPHRVTA[NMeA]K-OH; linker N-10 via Glutaryl)", "values": [{"measurement": "Binding analysis of clones on immobilized LC3 (FIG. 3E)", "setting": "LC3A", "value": "selective LC3 binding; also recorded: nearly quantitative binding"}, {"measurement": "cell viability (MTT), DIRAS3-induced (autophagic) cells", "setting": "SKOv3 cells", "value": "significant rescue of viability"}, {"measurement": "cell viability (MTT), non-DIRAS3 induced cells", "setting": "SKOv3 cells; SKOv3, no Dox (non-autophagic), up to 72 hours", "value": "no statistically significant effect on cell viability"}, {"measurement": "LC3I/LC3II ratio", "setting": "SKOv3-ARHI cells", "value": "decreased LC3I/LC3II ratio"}, {"measurement": "p62 protein levels", "setting": "SKOv3-ARHI cells", "value": "increase in p62 protein levels"}, {"measurement": "LC3I/LC3II ratio", "setting": "OVCAR8-ARHI cells", "value": "decreased LC3I/LC3II ratio"}, {"measurement": "p62 protein levels", "setting": "OVCAR8-ARHI cells", "value": "increase in p62 protein levels"}, {"measurement": "cell viability (MTT), DIRAS3-induced (autophagic) cells", "setting": "OVCAR8 cells", "value": "significant rescue of viability"}, {"measurement": "cell viability (MTT), non-DIRAS3 induced cells", "setting": "OVCAR8 cells; OVCAR8, no Dox (non-autophagic), up to 72 hours", "value": "no statistically significant effect on cell viability"}]}]}
